Measured values: US20260191244A1, “NOVEL FLAVOR COMPOUNDS” (INTERNATIONAL FLAVORS & FRAGRANCES INC., priority 2022, published 2026)

Tests used:
[1] = Summary statements over all flavor evaluations
[2] = Flavor evaluation of water solutions; conditions: for Flavor Profile: water solution
Method: A series of water solutions of N-(4-methoxyphenyl)-2-methyl-2-(1-methylcyclohexyl)propenamide (Structure A4) were prepared and evaluated for flavor. The flavor profile is reported in the following:
Preparation and Evaluation of N-(4-Methoxyphenyl)-2-methyl-2-(1-methylcyclohexyl)propenamide (Structure A4) and 1-(tert-Butyl)-N-(4-methoxyphenyl)cyclohexane-1-carboxamide (Structure B4) Mixtures of Different Ratios: Mixtures of N-(4-methoxyphenyl)-2-methyl-2-(1-methylcyclohexyl)propenamide (Structure A4) and 1-(tert-butyl)-N-(4-methoxyphenyl)cyclohexane-1-carboxamide (Structure B4) were prepared by mixing two compounds at different ratios. “Ratio” refers to the weight ratio of Structure A4 and Structure B4. Water solutions of the mixtures (375 ppb) were prepared and evaluated for flavor in water, MSG solution (5000 ppm) and a salt solution (containing NaCl of 3750 ppm, Ribotide® of 35 ppm and MSG of 840 ppm), respectively. Water, MSG solution and the salt solution were each used as base controls.

[3] = Flavor evaluation in monosodium glutamate (MSG) solution (5000 ppm)
Method: A monosodium glutamate (MSG) solution (5000 ppm) was prepared in water. The flavor profile of the MSG solution with added Structure A4 is reported in the following:
As used herein, the term “synergistic umami” refers to the umami effect of the Structure A4 and MSG combination that is stronger than the added umami effect of individual Structure A4 and MSG. […]

[4] = Flavor evaluation in Ribotide solution (1000 ppm); conditions: 2 ppm added in Ribotide solution (1000 ppm)
Source text: The Structure A4 and B4 mixture of 50:50 ratio ([…]) was further evaluated in Ribotide® (1000 ppm).

For `COc1ccc(NC(=O)C(C)(C)C2(C)CCCCC2)cc1` [Structure A4, N-(4-Methoxyphenyl)-2-methyl-2-(1-methylcyclohexyl)propenamide], the Umami character ([1]; in all evaluations) was “provided upfront and lingering umami character”, the Synergistic umami ([1]; when combined with Structure B4 and/or an additional umami compound) was “achieved synergistic umami” and the “Flavor Profile” value ([2]; Structure A4 1 ppm) was “Strong umami, cooling, tingly, tongue scratching”. For the same compound, the “Flavor Profile” value ([2]; Structure A4 2 ppm) was “Strong and lingering umami, good mouthfeel, cooling, tingling”, the “Flavor Profile” value ([2]; Structure A4 5 ppm) was “Strong and lingering umami, moderate and lingering cooling, lingering bitter, drying” and the “Flavor Profile” value ([2]; Structure A4 10 ppm) was “Moderate umami, moderate cooling, lingering bitter, tingling, brackish linger”. The “Flavor Profile” value ([2]; Structure A4 15 ppm) was “Moderate umami, moderate cooling, lingering bitter, creamy, mineral, drying”, the “Flavor Profile” value ([2]; Structure A4 100 ppb) was “Very slight bitter, minimal cooling, drying linger, minimal umami” and the “Flavor Profile” value ([2]; Structure A4 200 ppb) was “Slight cooling, slight bitter, drying, very slight umami”. For the same compound, the “Flavor Profile” value ([2]; Structure A4 375 ppb) was “Slight bitter, cooling, umami, linger”, the “Flavor Profile” value ([2]; Structure A4 500 ppb) was “Clear and moderate umami, slight bitter, cooling, linger” and the “Flavor Profile” value ([2]; Structure A4 750 ppb) was “Clear and moderate umami, cooling, slightly soapy, slightly waxy”. For the same compound, the Umami in water ([2]; water solutions, all concentrations 100 ppb to 15 ppm) was “exhibited umami”, the “Umami Strength” value ([3]; MSG solution (5000 ppm) with added Structure A4 1 ppm) was “Synergistic umami of Structure A4 and MSG, lingering umami” and the “Umami Strength” value ([3]; MSG solution (5000 ppm) with added Structure A4 2 ppm) was “Synergistic umami of Structure A4 and MSG, lingering umami”. For the same compound, the “Umami Strength” value ([3]; MSG solution (5000 ppm) with added Structure A4 5 ppm) was “Synergistic umami of Structure A4 and MSG, strong cooling”, the “Umami Strength” value ([3]; MSG solution (5000 ppm) with added Structure A4 10 ppm) was “Synergistic umami of Structure A4 and MSG, strong cooling” and the “Umami Strength” value ([3]; MSG solution (5000 ppm) with added Structure A4 15 ppm) was “Synergistic umami of Structure A4 and MSG, strong cooling”. For the same compound, the “Umami Strength” value ([3]; MSG solution (5000 ppm) with added Structure A4 100 ppb) was “Added effect of Structure A4 and MSG”, the “Umami Strength” value ([3]; MSG solution (5000 ppm) with added Structure A4 200 ppb) was “Synergistic umami of Structure A4 and MSG, lingering umami” and the “Umami Strength” value ([3]; MSG solution (5000 ppm) with added Structure A4 375 ppb) was “Synergistic umami of Structure A4 and MSG, lingering umami”. The “Umami Strength” value ([3]; MSG solution (5000 ppm) with added Structure A4 500 ppb) was “Synergistic umami of Structure A4 and MSG, lingering umami”, the “Umami Strength” value ([3]; MSG solution (5000 ppm) with added Structure A4 750 ppb) was “Synergistic umami of Structure A4 and MSG, lingering umami” and the “Synergistic umami with MSG” value ([3]; Structure A4 ranging from 200 ppb to 15 ppm and MSG (5000 ppm)) was “Synergistic umami was achieved”. For the same compound, the “Synergistic umami in Ribotide solution” value [4] was “synergistic umami was also achieved”.

In the case of `COc1ccc(NC(=O)C2(C(C)(C)C)CCCCC2)cc1` [Structure B4, 1-(tert-butyl)-N-(4-methoxyphenyl)cyclohexane-1-carboxamide], the Flavor in water ([2]; 375 ppb in water) is reported as “slight umami, slight sweetness and bitter linger”.
